According to patent US20160120863A1, “SLC2A TRANSPORTER INHIBITORS” (IOMET PHARMA LTD., priority 2013, published 2016):

Experiments:
[1] = molecular target: T1, human GLUT2 (Homo sapiens, UniProt P11168); test: [3H]-deoxy-D-glucose uptake assay, GLUT2; assay type: cell-based; conditions: [3H]-deoxy-D-glucose uptake in HEK293 cells stably expressing human GLUT2
T1 construct: expressed in transfected cells
T1 sequence (P11168 1-524): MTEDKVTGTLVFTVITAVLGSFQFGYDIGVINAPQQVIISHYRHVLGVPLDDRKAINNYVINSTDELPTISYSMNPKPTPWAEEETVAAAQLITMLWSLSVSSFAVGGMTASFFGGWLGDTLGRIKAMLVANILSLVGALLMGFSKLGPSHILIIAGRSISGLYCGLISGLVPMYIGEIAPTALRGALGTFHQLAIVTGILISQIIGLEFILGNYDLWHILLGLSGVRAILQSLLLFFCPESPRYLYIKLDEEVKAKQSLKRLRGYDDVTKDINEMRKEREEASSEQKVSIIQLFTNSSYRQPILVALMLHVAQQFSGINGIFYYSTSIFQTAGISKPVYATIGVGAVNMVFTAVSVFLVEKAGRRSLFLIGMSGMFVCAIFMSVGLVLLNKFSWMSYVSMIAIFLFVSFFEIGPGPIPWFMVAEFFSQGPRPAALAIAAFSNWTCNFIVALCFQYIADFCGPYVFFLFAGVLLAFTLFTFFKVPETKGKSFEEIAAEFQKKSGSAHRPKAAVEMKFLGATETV
Protocol: HEK293 cells were engineered to stably express either human GLUT1, GLUT2, GLUt3 or GLUT4 by transfection with the pReceiver-Lv105 plasmid, containing either hGLUT1, hGLUT2, hGLUT3, or hGLUT4 gene constructs with lipofectamine 2000, hGLUT1- hGLUT2- hGLUT3- or hGLUT4-overexpressing polyclonal populations were isolated under purinomycin selective pressure (1 μg/ml) and maintained in Dulbecco's modified Eagle's medium supplemented with 1 μg/ml purinomycin+10% foetal bovine serum (FBS).
60,000 cells per well were seeded overnight into poly-D-lysine coasted 96-well plates. […] 90 μl of test compounds were added in glucose-free uptake buffer and cells were incubated at 37° C. for 30 min.
Cells were then washed twice with ice-cold PBS and 100 μl of Microscint-20 was added per well. Glucose uptake was quantified with a scintillation counter. The half maximal inhibitory concentration (IC50) (a measure of the effectiveness of the test compound in inhibiting glucose uptake) was determined.

[2] = molecular target: T2, human GLUT1 (Homo sapiens, UniProt P11166); test: [3H]-deoxy-D-glucose uptake assay, GLUT1; assay type: cell-based; conditions: [3H]-deoxy-D-glucose uptake in HEK293 cells stably expressing human GLUT1
T2 construct: expressed in transfected cells
T2 sequence (P11166 1-492): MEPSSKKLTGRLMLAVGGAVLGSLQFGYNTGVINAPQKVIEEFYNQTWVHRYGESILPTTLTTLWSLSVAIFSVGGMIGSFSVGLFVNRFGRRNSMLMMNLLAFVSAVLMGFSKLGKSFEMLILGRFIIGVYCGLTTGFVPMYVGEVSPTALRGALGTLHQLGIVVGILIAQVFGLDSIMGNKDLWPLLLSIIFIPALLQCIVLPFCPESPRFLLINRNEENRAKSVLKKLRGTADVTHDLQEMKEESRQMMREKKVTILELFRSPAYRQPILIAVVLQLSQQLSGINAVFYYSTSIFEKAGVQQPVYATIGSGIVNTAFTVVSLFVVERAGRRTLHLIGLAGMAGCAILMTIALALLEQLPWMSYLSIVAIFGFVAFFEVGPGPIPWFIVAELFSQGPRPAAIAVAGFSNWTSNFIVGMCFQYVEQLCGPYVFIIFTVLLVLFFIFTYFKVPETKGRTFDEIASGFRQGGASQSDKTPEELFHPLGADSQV
Summary of the method: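 HEK293 cells stably overexpressing human GLUT1 or GLUT2, seeded at 60,000 per well, treated with compounds in glucose-free uptake buffer for 30 min at 37 °C. [3H]-deoxy-D-glucose uptake quantified by scintillation counting after ice-cold PBS washes; IC50 determined.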

Structure (SMILES) | GLUT2 pIC50 [1] | GLUT1 pIC50 [2]
N#Cc1ccccc1-c1ccc2nc(-c3ccc(Cl)cc3)c(CN3CCOCC3)n2c1 [Compound 91] | +++ (pIC50 ≧ 6.00) | +++ (pIC50 ≧ 6.00)
CC(C)c1cn2c(CN3CCOCC3)c(-c3ccc(Cl)cc3)nc2cn1 [Compound 217] | +++ (pIC50 ≧ 6.00) | +++ (pIC50 ≧ 6.00)
N#Cc1cccc(F)c1-c1ccc2nc(-c3ccc(Cl)cc3)c(CN3CCOCC3)n2c1 [Compound 236] | +++ (pIC50 ≧ 6.00) | +++ (pIC50 ≧ 6.00)
N#Cc1ccccc1-c1ccc2nc(-c3ccc(Cl)cc3)c(CN3CCNC(=O)C3)n2c1 [Compound 239] | – | +++ (pIC50 ≧ 6.00)
Clc1ccc(-c2nc3ccc(C4CCCC4)cn3c2CN2CCOCC2)cc1 [Compound 240] | – | ++ (pIC50 5.00-5.99)
Clc1ccc(-c2nc3ccc(-c4ncccn4)cn3c2CN2CCOCC2)cc1 [Compound 241] | – | ++ (pIC50 5.00-5.99)
OC(c1c(-c2ccc(Cl)cc2)nc2ccc(-c3ccccc3)cn12)C1CCCN1 (stereo not drawn) [Compound 245] | – | +− (pIC50 < 4.00)
CN1CCN(Cc2c(-c3ccc(Cl)cc3)nc3ccc(-c4ccccc4C#N)cn23)CC1=O [Compound 247] | +++ (pIC50 ≧ 6.00) | +++ (pIC50 ≧ 6.00)
Fc1cc(Cl)ccc1-c1nc2ccc(-c3ccccc3)cn2c1CN1CCOCC1 [Compound 249] | – | ++ (pIC50 5.00-5.99)
Fc1cccnc1-c1ccc2nc(-c3ccc(Cl)cc3)c(CN3CCOCC3)n2c1 [Compound 251] | – | ++ (pIC50 5.00-5.99)
CCC(=O)N1CCN(Cc2c(-c3ccc(Cl)cc3)nc3cnc(C4CC4)cn23)CC1 [Compound 253] | +++ (pIC50 ≧ 6.00) | +++ (pIC50 ≧ 6.00)
O=C(c1cnccn1)N1CCN(Cc2c(-c3ccc(Cl)cc3)nc3cnc(C4CC4)cn23)CC1 [Compound 255] | – | +++ (pIC50 ≧ 6.00)
O=C(C1CCOCC1)N1CCN(Cc2c(-c3ccc(Cl)cc3)nc3cnc(C4CC4)cn23)CC1 [Compound 256] | – | +++ (pIC50 ≧ 6.00)
CC(=O)N1CCN(Cc2c(-c3ccc(Cl)cc3)nc3ccc(NS(C)(=O)=O)cn23)CC1 [Compound 259] | ++ (pIC50 5.00-5.99) | +++ (pIC50 ≧ 6.00)
COCC(=O)N1CCN(Cc2c(-c3ccc(Cl)cc3)nc3ccc(NS(C)(=O)=O)cn23)CC1 [Compound 260] | – | +++ (pIC50 ≧ 6.00)
O=C(c1cnccn1)N1CCN(Cc2c(-c3ccc(Cl)cc3)nc3ccc(C4CC4)cn23)CC1 [Compound 263] | – | +++ (pIC50 ≧ 6.00)
O=C(c1cscn1)N1CCN(Cc2c(-c3ccc(Cl)cc3)nc3cnc(C4CC4)cn23)CC1 [Compound 267] | – | +++ (pIC50 ≧ 6.00)
O=C(c1ccnnc1)N1CCN(Cc2c(-c3ccc(Cl)cc3)nc3cnc(C4CC4)cn23)CC1 [Compound 268] | – | +++ (pIC50 ≧ 6.00)
O=C(C1COC1)N1CCN(Cc2c(-c3ccc(Cl)cc3)nc3cnc(C4CC4)cn23)CC1 [Compound 274] | – | +++ (pIC50 ≧ 6.00)
COCC(=O)N1CCN(Cc2c(-c3ccc(Cl)cc3)nc3ccc([N+](=O)[O-])cn23)CC1 [Compound 275] | – | ++ (pIC50 5.00-5.99)
CC(=O)N1CCN(Cc2c(-c3ccc(Cl)cc3)nc3ccc(N)cn23)CC1 [Compound 276] | – | +− (pIC50 < 4.00)
CS(=O)(=O)Nc1ccc2nc(-c3ccc(Cl)cc3)c(CN3CCN(C(=O)c4cscn4)CC3)n2c1 [Compound 279] | – | +++ (pIC50 ≧ 6.00)
COCC(=O)N1CCN(Cc2c(-c3ccc(Cl)cc3)nc3ccc(N)cn23)CC1 [Compound 280] | – | +− (pIC50 < 4.00)
O=C(C1COC1)N1CCN(Cc2c(-c3ccc(Cl)cc3)nc3ccc(-c4ncon4)cn23)CC1 [Compound 285] | – | +++ (pIC50 ≧ 6.00)
CS(=O)(=O)Nc1ccc2nc(-c3ccc(Cl)cc3)c(CN3CCN(C(=O)C4COC4)CC3)n2c1 [Compound 286] | – | +++ (pIC50 ≧ 6.00)
Clc1ccc(-c2nc3ccc(-c4nccs4)cn3c2CN2CCOCC2)cc1 [Compound 287] | – | +++ (pIC50 ≧ 6.00)
O=C1CN(Cc2c(-c3ccc(Cl)cc3)nc3cnc(C4CC4)cn23)CCN1 [Compound 288] | – | +++ (pIC50 ≧ 6.00)
CS(=O)(=O)Nc1ccc2nc(-c3ccc(Cl)cc3)c(CN3CCNC(=O)C3)n2c1 [Compound 289] | – | +++ (pIC50 ≧ 6.00)

More lines, now with the values ahead:

GLUT2 pIC50 [1] | GLUT1 pIC50 [2] | Structure (SMILES)
+++ (pIC50 ≧ 6.00) | +++ (pIC50 ≧ 6.00) | COc1ccc(C(=O)N2CCN(Cc3c(-c4ccc(Cl)cc4)nc4ccc(-c5ccccc5)cn34)CC2)cc1 [Compound 126]
+− (pIC50 < 4.00) | +− (pIC50 < 4.00) | O=C(Nc1cccc(F)c1)N1CCN(Cc2c(-c3ccc(Cl)cc3)nc3ccc(-c4ccccc4)cn23)CC1 [Compound 127]
+++ (pIC50 ≧ 6.00) | +++ (pIC50 ≧ 6.00) | O=C(C1COC1)N1CCN(Cc2c(-c3ccc(Cl)cc3)nc3ccc(-c4ccccc4)cn23)CC1 [Compound 171]
+++ (pIC50 ≧ 6.00) | +++ (pIC50 ≧ 6.00) | CC(=O)N1CCN(Cc2c(-c3ccc(Cl)cc3)nc3cnc(-c4ccccc4C#N)cn23)CC1 [Compound 224]
+++ (pIC50 ≧ 6.00) | +++ (pIC50 ≧ 6.00) | O=C1CCN(Cc2c(-c3ccc(Cl)cc3)nc3ccc(-c4ccccc4)cn23)CCN1 [Compound 227]
+++ (pIC50 ≧ 6.00) | +++ (pIC50 ≧ 6.00) | CN1CCN(Cc2c(-c3ccc(Cl)cc3)nc3ccc(-c4ccccc4)cn23)CCC1=O [Compound 232]
– | +++ (pIC50 ≧ 6.00) | Cn1cc(C(=O)N2CCN(Cc3c(-c4ccc(Cl)cc4)nc4ccc(-c5ccccc5)cn34)CC2)cn1 [Compound 243]
– | +++ (pIC50 ≧ 6.00) | O=C(c1cc[nH]c(=O)c1)N1CCN(Cc2c(-c3ccc(Cl)cc3)nc3ccc(-c4ccccc4)cn23)CC1 [Compound 244]
– | ++ (pIC50 5.00-5.99) | Cn1ccnc1C(=O)N1CCN(Cc2c(-c3ccc(Cl)cc3)nc3ccc(-c4ccccc4)cn23)CC1 [Compound 246]
– | ++ (pIC50 5.00-5.99) | CN1CCN(Cc2c(-c3ccc(Cl)cc3)nc3ccc(-c4ccccc4)cn23)CC1=O [Compound 248]
– | +++ (pIC50 ≧ 6.00) | O=C(c1cn[nH]c1)N1CCN(Cc2c(-c3ccc(Cl)cc3)nc3ccc(-c4ccccc4)cn23)CC1 [Compound 250]
– | +++ (pIC50 ≧ 6.00) | O=C(c1nccs1)N1CCN(Cc2c(-c3ccc(Cl)cc3)nc3ccc(-c4ccccc4)cn23)CC1 [Compound 266]
– | +++ (pIC50 ≧ 6.00) | CC(=O)N1CCN(Cc2c(-c3ccc(Cl)cc3)nc3ccc(-c4ncon4)cn23)CC1 [Compound 270]
– | +++ (pIC50 ≧ 6.00) | O=C(CO)N1CCN(Cc2c(-c3ccc(Cl)cc3)nc3ccc(-c4ccccc4)cn23)CC1 [Compound 277]
– | +++ (pIC50 ≧ 6.00) | O=C(c1ccncc1)N1CCN(Cc2c(-c3ccc(Cl)cc3)nc3ccc(-c4ncon4)cn23)CC1 [Compound 281]
– | +− (pIC50 < 4.00) | O=C(c1c(-c2ccc(Cl)cc2)nc2ccc(-c3ccccc3)cn12)N1CCOCC1 [Compound 282]
– | +− (pIC50 < 4.00) | CN1CCN(C(=O)c2c(-c3ccc(Cl)cc3)nc3ccc(-c4ccccc4)cn23)CC1 [Compound 283]
– | +++ (pIC50 ≧ 6.00) | COCC(=O)N1CCN(Cc2c(-c3ccc(Cl)cc3)nc3ccc(-c4ncon4)cn23)CC1 [Compound 284]
– | +− (pIC50 < 4.00) | CC(C)(C)OC(=O)N1CCN(C(=O)c2c(-c3ccc(Cl)cc3)nc3ccc(-c4ccccc4)cn23)CC1 [Compound 290]
– | +− (pIC50 < 4.00) | O=C(c1c(-c2ccc(Cl)cc2)nc2ccc(-c3ccccc3)cn12)N1CCNCC1 [Compound 291]
